Test results from paper PMC9851200, “Multiparameter phenotypic screening for endogenous TFEB and TFE3 translocation identifies novel chemical series modulating lysosome function” (Autophagy, 2022).

Assays:
Format in all cases: binding
[1] = target: T1, kinases (KINOMEscan panel) (Homo sapiens, UniProt Q9NRM7); conditions: NEW KINOMEscan
T1 sequence (Q9NRM7 1-1088): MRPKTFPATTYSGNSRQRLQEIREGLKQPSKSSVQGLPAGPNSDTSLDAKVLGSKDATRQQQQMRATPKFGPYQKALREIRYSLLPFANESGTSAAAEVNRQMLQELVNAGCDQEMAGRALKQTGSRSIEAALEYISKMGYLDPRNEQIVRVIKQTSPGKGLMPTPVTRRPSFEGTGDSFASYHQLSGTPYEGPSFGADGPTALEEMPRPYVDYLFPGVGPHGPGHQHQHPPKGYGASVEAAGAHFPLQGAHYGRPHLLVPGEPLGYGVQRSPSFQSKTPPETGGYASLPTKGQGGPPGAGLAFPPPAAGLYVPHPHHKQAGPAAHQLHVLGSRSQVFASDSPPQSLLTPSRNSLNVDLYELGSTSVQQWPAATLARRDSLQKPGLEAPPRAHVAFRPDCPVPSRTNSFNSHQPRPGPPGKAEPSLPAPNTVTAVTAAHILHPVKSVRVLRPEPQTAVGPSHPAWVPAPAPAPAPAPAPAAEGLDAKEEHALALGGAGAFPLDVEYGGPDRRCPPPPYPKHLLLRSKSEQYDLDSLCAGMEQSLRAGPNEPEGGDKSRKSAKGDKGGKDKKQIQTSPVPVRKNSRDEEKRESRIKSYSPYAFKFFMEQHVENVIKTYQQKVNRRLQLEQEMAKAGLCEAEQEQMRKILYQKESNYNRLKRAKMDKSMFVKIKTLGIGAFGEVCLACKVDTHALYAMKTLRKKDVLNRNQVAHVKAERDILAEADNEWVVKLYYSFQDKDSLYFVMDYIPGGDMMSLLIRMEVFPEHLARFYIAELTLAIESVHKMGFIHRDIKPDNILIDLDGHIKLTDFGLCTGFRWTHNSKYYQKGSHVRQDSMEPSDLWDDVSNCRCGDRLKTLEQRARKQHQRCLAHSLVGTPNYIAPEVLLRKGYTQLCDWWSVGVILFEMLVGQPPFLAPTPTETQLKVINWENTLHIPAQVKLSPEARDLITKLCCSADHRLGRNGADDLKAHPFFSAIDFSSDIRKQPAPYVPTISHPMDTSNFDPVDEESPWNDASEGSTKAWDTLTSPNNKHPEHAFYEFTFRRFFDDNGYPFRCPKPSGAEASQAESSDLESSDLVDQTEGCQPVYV

[2] = target: T2, kinases (KINOMEscan panel) (Homo sapiens, UniProt Q9UF33); conditions: kinase EPHA6; NEW KINOMEscan
T2 sequence (Q9UF33 23-1036): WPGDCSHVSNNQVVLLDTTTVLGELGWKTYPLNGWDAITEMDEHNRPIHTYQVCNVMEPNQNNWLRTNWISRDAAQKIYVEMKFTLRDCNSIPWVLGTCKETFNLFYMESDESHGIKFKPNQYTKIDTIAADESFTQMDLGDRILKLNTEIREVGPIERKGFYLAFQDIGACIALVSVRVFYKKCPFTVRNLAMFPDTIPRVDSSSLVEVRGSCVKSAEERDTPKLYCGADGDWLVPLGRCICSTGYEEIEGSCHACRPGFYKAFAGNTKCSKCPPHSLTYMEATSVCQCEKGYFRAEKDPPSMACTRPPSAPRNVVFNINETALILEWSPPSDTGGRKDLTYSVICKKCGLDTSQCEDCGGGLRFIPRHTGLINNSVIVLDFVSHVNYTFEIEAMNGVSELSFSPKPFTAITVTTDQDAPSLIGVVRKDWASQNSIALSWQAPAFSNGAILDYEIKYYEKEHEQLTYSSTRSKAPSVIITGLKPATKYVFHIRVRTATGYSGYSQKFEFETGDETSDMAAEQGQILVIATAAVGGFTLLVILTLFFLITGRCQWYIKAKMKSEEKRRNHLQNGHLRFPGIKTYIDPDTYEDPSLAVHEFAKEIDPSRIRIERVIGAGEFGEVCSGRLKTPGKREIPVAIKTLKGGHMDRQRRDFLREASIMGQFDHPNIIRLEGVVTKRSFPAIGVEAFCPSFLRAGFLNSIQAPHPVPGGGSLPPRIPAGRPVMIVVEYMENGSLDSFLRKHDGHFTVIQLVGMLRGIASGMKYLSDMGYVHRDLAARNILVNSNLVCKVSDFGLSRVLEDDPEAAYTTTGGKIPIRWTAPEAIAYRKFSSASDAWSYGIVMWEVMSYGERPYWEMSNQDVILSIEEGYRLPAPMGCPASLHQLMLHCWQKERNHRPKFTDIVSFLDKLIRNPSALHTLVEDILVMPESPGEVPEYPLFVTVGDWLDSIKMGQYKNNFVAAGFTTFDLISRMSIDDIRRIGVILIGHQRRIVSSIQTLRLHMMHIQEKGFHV

[3] = target: kinases (KINOMEscan panel) (Homo sapiens, UniProt P41240); conditions: kinase CSK; NEW KINOMEscan
[4] = target: T3, kinases (KINOMEscan panel) (Homo sapiens, UniProt Q96BR1); conditions: kinase SGK3; NEW KINOMEscan
T3 sequence (Q96BR1 1-496): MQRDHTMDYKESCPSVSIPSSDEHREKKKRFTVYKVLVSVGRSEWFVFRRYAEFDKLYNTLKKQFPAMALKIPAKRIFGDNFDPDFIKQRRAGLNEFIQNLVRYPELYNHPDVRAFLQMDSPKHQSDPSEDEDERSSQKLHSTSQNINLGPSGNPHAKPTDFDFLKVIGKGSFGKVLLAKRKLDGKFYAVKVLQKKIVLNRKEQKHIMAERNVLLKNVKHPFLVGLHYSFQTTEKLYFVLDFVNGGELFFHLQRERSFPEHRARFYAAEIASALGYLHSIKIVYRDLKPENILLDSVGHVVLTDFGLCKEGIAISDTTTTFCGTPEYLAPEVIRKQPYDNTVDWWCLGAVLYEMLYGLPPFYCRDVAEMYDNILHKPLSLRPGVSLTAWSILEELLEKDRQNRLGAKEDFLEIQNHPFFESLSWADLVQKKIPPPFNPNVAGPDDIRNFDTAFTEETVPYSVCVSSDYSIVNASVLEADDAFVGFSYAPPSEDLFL

[5] = target: kinases (KINOMEscan panel) (Homo sapiens, UniProt P07949, V804L); conditions: NEW KINOMEscan
[6] = target: kinases (KINOMEscan panel) (Homo sapiens, UniProt Q04912); conditions: MST1R; NEW KINOMEscan
Chain of kinases (KINOMEscan panel) (Homo sapiens, UniProt Q04912) (Q04912 25-1400): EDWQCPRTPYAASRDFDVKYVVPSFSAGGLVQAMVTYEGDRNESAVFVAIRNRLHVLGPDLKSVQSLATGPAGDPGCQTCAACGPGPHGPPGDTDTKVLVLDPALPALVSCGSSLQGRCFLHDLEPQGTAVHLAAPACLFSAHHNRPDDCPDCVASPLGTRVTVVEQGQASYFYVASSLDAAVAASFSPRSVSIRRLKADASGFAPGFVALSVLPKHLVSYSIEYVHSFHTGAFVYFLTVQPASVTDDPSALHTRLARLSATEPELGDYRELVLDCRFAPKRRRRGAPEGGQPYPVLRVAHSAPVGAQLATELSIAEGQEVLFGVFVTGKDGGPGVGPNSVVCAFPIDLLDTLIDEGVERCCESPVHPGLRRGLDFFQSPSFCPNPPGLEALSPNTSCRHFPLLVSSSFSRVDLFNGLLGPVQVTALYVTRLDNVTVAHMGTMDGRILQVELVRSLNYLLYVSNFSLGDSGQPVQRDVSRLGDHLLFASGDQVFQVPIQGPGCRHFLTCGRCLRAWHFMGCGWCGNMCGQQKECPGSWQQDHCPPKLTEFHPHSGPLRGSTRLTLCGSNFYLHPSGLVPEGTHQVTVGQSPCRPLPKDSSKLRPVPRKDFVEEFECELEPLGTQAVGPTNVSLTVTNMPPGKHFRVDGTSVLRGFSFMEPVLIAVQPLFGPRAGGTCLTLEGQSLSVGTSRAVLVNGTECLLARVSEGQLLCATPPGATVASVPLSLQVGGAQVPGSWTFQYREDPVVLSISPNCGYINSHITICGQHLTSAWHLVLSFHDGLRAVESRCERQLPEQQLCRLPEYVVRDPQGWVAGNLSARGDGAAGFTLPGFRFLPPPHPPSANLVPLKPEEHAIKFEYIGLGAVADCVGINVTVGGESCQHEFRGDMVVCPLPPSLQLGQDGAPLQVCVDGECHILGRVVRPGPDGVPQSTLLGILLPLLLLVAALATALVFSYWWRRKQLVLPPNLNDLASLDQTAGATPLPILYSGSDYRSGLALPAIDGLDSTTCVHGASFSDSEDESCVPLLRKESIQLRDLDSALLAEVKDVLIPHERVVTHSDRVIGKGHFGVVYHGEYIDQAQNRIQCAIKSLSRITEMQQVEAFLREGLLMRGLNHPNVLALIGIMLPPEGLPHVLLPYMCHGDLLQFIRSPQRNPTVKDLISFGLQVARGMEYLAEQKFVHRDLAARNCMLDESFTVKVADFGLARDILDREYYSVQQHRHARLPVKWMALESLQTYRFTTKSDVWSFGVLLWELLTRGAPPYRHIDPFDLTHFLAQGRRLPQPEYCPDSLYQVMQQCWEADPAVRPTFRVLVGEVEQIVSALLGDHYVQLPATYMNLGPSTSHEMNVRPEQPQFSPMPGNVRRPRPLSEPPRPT

Chain of kinases (KINOMEscan panel) (Homo sapiens, UniProt P41240) (P41240 whole entry): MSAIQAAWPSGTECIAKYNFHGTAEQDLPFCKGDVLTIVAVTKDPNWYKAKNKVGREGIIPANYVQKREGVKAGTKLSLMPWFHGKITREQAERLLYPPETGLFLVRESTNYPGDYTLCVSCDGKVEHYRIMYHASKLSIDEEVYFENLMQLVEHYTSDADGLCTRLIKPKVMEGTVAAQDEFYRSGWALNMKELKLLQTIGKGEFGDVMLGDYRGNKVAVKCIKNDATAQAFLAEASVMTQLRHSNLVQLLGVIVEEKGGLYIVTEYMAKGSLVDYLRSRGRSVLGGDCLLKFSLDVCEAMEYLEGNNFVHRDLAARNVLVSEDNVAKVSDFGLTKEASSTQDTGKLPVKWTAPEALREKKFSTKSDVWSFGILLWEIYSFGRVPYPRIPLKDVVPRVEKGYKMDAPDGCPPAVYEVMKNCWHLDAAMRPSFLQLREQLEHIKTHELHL
Chain of kinases (KINOMEscan panel) (Homo sapiens, UniProt P07949, V804L) (P07949 29-1114 V804L): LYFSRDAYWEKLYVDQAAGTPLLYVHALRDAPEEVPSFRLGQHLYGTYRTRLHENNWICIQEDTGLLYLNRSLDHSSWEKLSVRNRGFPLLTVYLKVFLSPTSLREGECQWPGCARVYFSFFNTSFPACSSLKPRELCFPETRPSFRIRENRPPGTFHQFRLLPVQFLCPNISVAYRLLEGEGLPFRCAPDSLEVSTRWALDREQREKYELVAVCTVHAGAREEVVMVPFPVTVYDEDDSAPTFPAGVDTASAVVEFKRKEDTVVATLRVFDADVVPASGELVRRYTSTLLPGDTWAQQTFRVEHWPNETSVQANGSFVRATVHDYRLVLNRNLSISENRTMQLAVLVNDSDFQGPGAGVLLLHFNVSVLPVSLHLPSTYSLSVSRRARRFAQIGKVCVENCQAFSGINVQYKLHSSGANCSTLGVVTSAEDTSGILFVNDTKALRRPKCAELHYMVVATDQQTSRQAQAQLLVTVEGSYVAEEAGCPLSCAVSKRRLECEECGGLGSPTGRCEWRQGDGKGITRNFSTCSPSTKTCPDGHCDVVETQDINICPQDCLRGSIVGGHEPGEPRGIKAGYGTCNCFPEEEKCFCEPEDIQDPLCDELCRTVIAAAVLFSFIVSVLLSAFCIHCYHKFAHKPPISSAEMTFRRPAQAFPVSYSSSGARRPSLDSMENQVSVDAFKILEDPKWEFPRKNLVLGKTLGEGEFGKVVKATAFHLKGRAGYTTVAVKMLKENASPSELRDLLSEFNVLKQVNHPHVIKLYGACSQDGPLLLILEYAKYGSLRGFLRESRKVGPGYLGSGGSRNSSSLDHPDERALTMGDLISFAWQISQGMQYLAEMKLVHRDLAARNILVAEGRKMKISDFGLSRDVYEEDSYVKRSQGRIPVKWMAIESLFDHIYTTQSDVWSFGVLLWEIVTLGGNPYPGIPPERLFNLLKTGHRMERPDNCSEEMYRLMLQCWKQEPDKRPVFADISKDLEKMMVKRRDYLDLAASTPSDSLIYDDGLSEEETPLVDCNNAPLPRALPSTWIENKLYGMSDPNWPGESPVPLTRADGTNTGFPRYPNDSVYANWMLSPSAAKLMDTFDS

Row | Structure (SMILES) | KINOMEscan LATS2 [1] | KINOMEscan EPHA6 [2] | KINOMEscan CSK [3] | KINOMEscan SGK3 [4] | KINOMEscan RET(V804L) [5] | KINOMEscan MST1R [6]
1 | Cc1cccc(-c2nc(Nc3ccc4nn(C)cc4c3)c3ccccc3n2)n1 [NK167] | 19 | 0 | 6 | 0 | 0 | 0
2 | Cc1cccc(-c2nc(N(C)c3ccc4ncsc4c3)c3ccccc3n2)n1 [NK-161] | 26 | 5 | 0 | 13 | 15 | 2
